The test system of one data set is Phytophthora infestans. It counts as cell-based. Particulars: 405 nm, 7 days after inoculation, 18° C.
In data set [1] the test system is Sugar beet seeds (Beretta). In words: Safener effect of dimethomorph: germination of pelleted sugar beet seeds under cold stress. The note with it: 30 g a.i./U seed pelleting; % of sown seeds; 6 days 13° C. then 5° C.; all seeds also treated with 6 g/U thiram and 14.7 g/U hymexazole. In kind it is in vivo. As for the experimental part:
Sugar beet seeds (Beretta) were pelleted either with pyraclostrobin alone or with pyraclostrobin in combination with dimethomorph. After sowing, the seeds (200 seeds per treatment, 4 repetitions) were grown for 6 days at 13° C. and then exposed to 5° C. for 7 days. Cultivation was then continued at 20° C. During the whole cultivation period the soil was kept at 20% humidity. 7 and 8 days after sowing (DAS) germination was assessed as % of the number of sown seeds.

The next data set concerns Septoria tritici. Particulars: 0.004 ppm; 405 nm, 7 days after inoculation, 18° C.

Where two headings read alike, the source gives them in different places.

`C/C(=N\C#N)N(C)Cc1ccc(Cl)nc1` [Acetamiprid] gave an Observed efficacy in the data set on Phytophthora infestans (0.25 ppm) of 0%. In the data set on Phytophthora infestans (0.25 ppm), `COc1ccc(C(=CC(=O)N2CCOCC2)c2ccc(Cl)cc2)cc1OC` [Dimethomorph] gave an Observed efficacy of 51%.

In turn, `CC(C)C1CCC(Cc2ccc(Cl)cc2)C1(O)Cn1cncn1` (stereo not drawn) [Ipconazol] gave an Observed efficacy with Phytophthora infestans (0.063 ppm) of 2%. In the case of `COC(=O)N(OC)c1ccccc1COc1ccn(-c2ccc(Cl)cc2)n1` [Pyraclostrobin], in data set [1], the “Germination 7 DAS” value was 16% and the “Germination 8 DAS” value is 27%. In addition, in the data set with Septoria tritici, the Observed efficacy came to 49%.

Values taken from US20120010072A1 (priority 2009, published 2012).
